We go through 72 compounds from PubChem BioAssay AID2384 (Southern Research Specialized Biocontainment Screening …, 2010).

This experiment deals with S. typhi GFP reporter counter-screen, fluorescence, 4 h. Briefly: inhibitors in S. typhi counter-screen strain, dose response, counter-screen for PhoP regulon inhibitor project, fluorescence, 4 h (AID 2384). In general terms: A counterscreen serves to expose hits that act by an unwanted route or on another target.

On to `OC(CNCCc1ccc(Cl)cc1)COc1cc(Cl)ccc1Cl` (configuration not stated), for which the IC50 (commonly the concentration at which inhibition is half-maximal) was 80.6 µM.
Consider `c1ccc(CN2CCC(Nc3nc(-c4cccs4)nc4ccccc34)CC2)cc1`, for which the half-maximal inhibitory concentration (IC50) is 37.2 µM.
As to `CCC(O)(CC)C(=O)N/N=C/c1cc(Br)cc(Br)c1O`, the IC50 is 70.2 µM.
On to `Cc1ccc(S(=O)(=O)CCC(=O)c2ccc(O)cc2O)cc1`, for which the IC50 is 57.5 µM.
`Cc1cc(C)c2c(N)c3ccccc3nc2n1`: the half-inhibitory concentration (IC50) is 84.7 µM.
For `COc1c(N2CCN[C@H](C)C2)c(F)cc2c(=O)c(C(=O)O)cn(C3CC3)c12`, the half-inhibitory concentration (IC50) is 4.98 µM.
On to `CCCCCC(CC(=O)NO)C(=O)NC(C(=O)N1CCCC1CO)C(C)C` (configuration not stated), for which the IC50 was 20.3 µM.
On to `CN(C)c1ccc2nc3ccc(=[N+](C)C)cc-3sc2c1`, for which the IC50 was 45.3 µM.
On to `CC(NCc1ccc(Cl)cc1)C(O)c1ccccc1` (configuration not stated), for which the half-inhibitory concentration (IC50) was 42.8 µM.
As for `CCOC(=O)c1c(N)sc(C(=O)Nc2ccc3c(c2)OCO3)c1C`, the IC50 was 132 µM.
Consider `O=C(N/N=C\C=C\c1ccc([N+](=O)[O-])o1)c1cccs1`, for which the IC50 was 11 µM.
Turning to `CCCCn1c(NS(=O)(=O)c2ccccc2)c(S(=O)(=O)c2ccc(C)cc2)c2nc3ccccc3nc21`, the IC50 was 9.39 µM.
Then `C[N+]12CN3CN(CN(C3)C1)C2`, with 69.8 µM; and `O=C(Nc1ccccc1)c1c(O)[nH]c(=S)[nH]c1=O`, with 84.8 µM.
Then `C(=N\Nc1ccccn1)/c1cccnc1`, with 30.1 µM; and `Cc1ccc(C(=O)NNC(=S)NC(=O)COc2ccccc2)cc1`, with 63.9 µM; and `O=C(O)c1cccc(N2C(=O)CSC2=S)c1`, with 68 µM.
Then `O=C(N/N=C/c1ccc([N+](=O)[O-])s1)C(O)c1ccccc1` (configuration not stated), with 32.1 µM; and `O=C1OCC(CO)(CO)N=C1NNc1ccc(Cl)c(Cl)c1`, with 144 µM.
Consider `OC(CNCCc1ccccc1)COc1ccc(OCC(O)CNCCc2ccccc2)cc1` (configuration not stated), for which the IC50 is 21.3 µM.
Consider `O=C(N/N=C/c1cccs1)c1ccc2nc[nH]c2c1`, for which the half-inhibitory concentration (IC50) was 125 µM.
Regarding `Cc1ccc(NC(=O)CSC(N)=O)cc1Cl`, the IC50 was 82.1 µM.
Regarding `Cc1ccc(N/C(=C\C(=O)c2ccccc2)C(=O)O)cc1`, the IC50 is 74.4 µM.
In the case of `O=C(Nc1ccccc1)Oc1ccc[nH]c1=O`, the IC50 was 52.9 µM.
The figure for `COc1cc(CNCCc2ccccc2)cc(Cl)c1OCc1ccccc1` is 37.6 µM.
Regarding `O=C(CC(=O)c1ccccc1O)c1cccc(F)c1`, the half-inhibitory concentration (IC50) is 28.9 µM.
Then `CCN(CC)C(=S)SSC(=S)N(CC)CC`, with 74.7 µM; and `O=C(C[n+]1cc(-c2ccc(Cl)cc2)n2c1CCC2)N1c2ccccc2Sc2ccccc21`, with 50.9 µM.
In the case of `O=C(N/N=C/c1cc(Cl)cc([N+](=O)[O-])c1O)C1CC1`, the IC50 was 98 µM.
Consider `O=C(Nc1nnc(-c2ccco2)o1)c1cccc(Cl)c1`, for which the IC50 was 43.1 µM.
`CC(=O)NC(c1cccc([N+](=O)[O-])c1)c1ccc2cccnc2c1O` (configuration not stated): the IC50 is 101 µM.
Take `CN1CCC(OC(=O)c2ccc(Br)cc2)CC1`: the IC50 is 18.2 µM.
On to `O=C(Nc1cccc(N=Cc2cc(Cl)cc(Br)c2O)c1)c1ccco1`, for which the IC50 is 60 µM.
With `COc1ccc(CNc2ncnc3c2[nH]c2ccccc23)cc1`, the IC50 was 150 µM.
Then `O=[N+]([O-])c1ccc(/C=[N+](\[O-])CCO)o1`, with 88.9 µM.
For the compound `O=C(COc1ccc(Br)cc1CNCCc1ccccc1)NCc1ccccc1`, the 50% inhibitory concentration (IC50) is 105 µM.
Turning to `Cc1cccn2c(=O)c(C=O)c(Cl)nc12`, the IC50 is 145 µM.
Take `CCn1cc(C(=O)O)c(=O)c2cc(F)c(N3CCN(S(=O)(=O)c4ccc(NC(C)=O)cc4)CC3)cc21`: the IC50 is 131 µM.
As to `COc1nsnc1NS(=O)(=O)c1ccc(NC(=S)NC(=O)c2cccnc2)cc1`, the IC50 was 68.5 µM.
`NC1=NC[C@H](Cc2ccc(O)cc2)N1CCCCC1CCCCC1`: the 50% inhibitory concentration (IC50) is 13.9 µM.
The figure for `OC(CNCc1ccco1)Cn1c2ccc(Br)cc2c2cc(Br)ccc21` (configuration not stated) is 18.9 µM; for `Cc1ccc2c(c1)N/C(=C(\C=C(/Cl)[N+](=O)[O-])[N+](=O)[O-])N2` it is 131 µM; for `C#CCOCCOCCOCCNc1nc(N2CCN(C(=O)[C@H]([C@@H](C)CC)n3cc([C@@H](N)CO)nn3)CC2)nc(N2CCN(C(=O)[C@H](Cc3cc4ccccc4[nH]3)n3cc([C@@H](N)Cc4ccc(O)cc4)nn3)CC2)n1` it is 49.7 µM.
Take `COc1c(N2CCN(C(=S)NC3CC4CCC3C4)C(C)C2)c(F)cc2c(=O)c(C(=O)O)cn(C3CC3)c12` (configuration not stated): the IC50 was 44.1 µM.
Take `Cc1ccc2c(c1)C1CN(C)CCC1N2C(=O)COc1ccccc1F` (configuration not stated): the 50% inhibitory concentration (IC50) is 110 µM.
The figure for `COC(=O)C1C(O)C(C)C(O)C(C)(O)/C=C\C=C(/C)C(=O)Nc2c(C)c(OC(C)=O)c3c(c2O)C(=O)C(C)=C2OCOC(=C23)/C(C)=C/C(C)(O)C(O)C(C)C1O` (configuration not stated) is 23.9 µM; for `O=C(N/N=C\c1ccc(Cl)s1)c1cccs1` it is 90.8 µM.
Turning to `Nc1cccc2c(=O)c3ccccc3[nH]c12`, the IC50 is 37.6 µM.
The figure for `O=C(Cc1ccc(Br)cc1)c1ccc(O)cc1O` is 107 µM.
As to `Oc1ccccc1Nc1nc(NCc2ccco2)c2ccccc2n1`, the IC50 is 50.9 µM.
Then `CN1CCC(OC(=O)c2ccc(Cl)cc2Cl)CC1`, with 36.8 µM; and `O=C(CCN1CCN(c2ccccc2)CC1)N/N=C/c1ccc([N+](=O)[O-])o1`, with 131 µM; and `Oc1cccc2ccc(Nc3ccccn3)nc12`, with 7.38 µM.
Regarding `CCCCCCCCC[n+]1cccc2c3ccccc3ccc21`, the IC50 was 15.1 µM.
For the compound `Cc1occc1C(=O)N/N=C/c1cccs1`, the IC50 was 54.9 µM.
`O=C1CSC(=S)N1c1cccc(O)c1`: the IC50 was 59.9 µM.
In the case of `Cc1cc(C)n(-c2nc(SCCN(C)C)c3c4c(sc3n2)CCCC4)n1`, the IC50 is 37.8 µM.
For `CCOC(=O)N1CCN(CCC(=O)c2ccc(Cl)cc2)CC1`, the IC50 was 66.6 µM.
For `Clc1ccc(OCCCNCc2ccccc2)c2ccccc12`, the concentration for half-maximal inhibition (IC50) is 18.3 µM.
As for `Cc1cc(C)n(-c2nc(NCCN(C)C)c3c4c(sc3n2)CCCC4)n1`, the IC50 was 37.9 µM.
In the case of `CN1CCN(C2=Cc3ccccc3Sc3cc(F)ccc32)CC1`, the half-inhibitory concentration (IC50) is 46.7 µM.
With `CN1CCN(C(=O)CSc2ccc(Cl)cc2)CC1`, the IC50 was 113 µM.
Consider `C=CC1=C(C(=O)O)N2C(=O)[C@@H](NC(=O)/C(=N/OCC(=O)O)c3csc(N)n3)[C@H]2SC1`, for which the IC50 was 16.5 µM.
On to `CN1CCCN(S(=O)(=O)c2ccc3ccccc3c2)CC1`, for which the IC50 was 46 µM.
As to `CNCCCN1c2ccccc2CCc2ccccc21`, the half-inhibitory concentration (IC50) was 77.6 µM.
Take `CC(C)(C)c1ccc(OCCCNC2CCCC2)cc1`: the IC50 was 77.7 µM.
`C#CCOCCOCCOCCNc1nc(N2CCN(C(=O)CCCCCCCCCCNC(=O)[C@H](CCCCN)n3cc(CCO)nn3)CC2)nc(N2CCN(C(=O)CCCCCCCCCCNC(=O)[C@H](CCCCN)n3cc(C[C@@H](C)CC)nn3)CC2)n1`: the IC50 was 20 µM.
Take `OCCN1CCN(C2CCC(c3ccc(F)cc3)c3ccc(F)cc32)CC1` (configuration not stated): the IC50 is 15.9 µM.
On to `O=C(N/N=C/c1cc(Br)ccc1O)c1ccncc1`, for which the IC50 was 20.6 µM.
In the case of `CC1CC(=O)c2c(cc3c(-c4c(O)cc(O)c5c(O)c6c(cc45)OC(C)CC6=O)c(O)cc(O)c3c2O)O1` (configuration not stated), the IC50 was 28.6 µM.
Turning to `COc1ccc(C(=O)NC(=S)NNC(=O)c2cccc(C)c2)cc1`, the IC50 is 48.8 µM.
For the compound `O=C(CCN1CCN(c2ccccc2)CC1)c1ccc(Cl)cc1`, the IC50 is 70.3 µM.
